The assay deals with T1, hM3 muscarinic receptor subtype (Homo sapiens, UniProt P20309).
T1 construct: expressed in transfected cells; crude membranes
Put plainly: Radioligand binding assay ([3H]-NMS displacement), CHO cell membranes. To be noted: [3H]-NMS at 1 nM, CHO cell membranes expressing hM3, 60 minutes at 37° C.; read-out: Ki value for the M3 muscarinic receptor subtype. Here is the method:
A. Membrane Preparation from Cells Expressing hM1, hM2, hM3 and hM4 Muscarinic Receptor Subtypes
CHO (Chinese hamster ovary) cell lines stably expressing cloned human hM1, hM2, hM3 and hM4 muscarinic receptor subtypes, respectively, were grown to near confluency in medium consisting of HAM's F-12 supplemented with 10% FBS (Fetal Bovine Serum) and 250 μg/mL Geneticin. The cells were grown in a 5% CO2, 37° C. incubator and lifted with 2 mM EDTA in dPBS. Cells were collected by 5 minute centrifugation at 650×g, and cell pellets were either stored frozen at −80° C. or membranes were prepared immediately. […] The protein concentration of the membrane suspension was determined by the method described in Lowry, O. et al., Journal of Biochemistry 193:265 (1951). […]
Radioligand binding assays were performed in 96-well microtiter plates in a total assay volume of 100 μL. […] Filter plates were rinsed three times with wash buffer (10 mM HEPES) to remove unbound radioactivity. […] The plates were then counted in a PerkinElmer Topcount liquid scintillation counter (PerkinElmer Inc., Wellesley, Mass.). Binding data were analyzed by nonlinear regression analysis with the GraphPad Prism Software package (GraphPad Software, Inc., San Diego, Calif.) using the one-site competition model. […]

Where only a bound is given, the exact number is not on record here.

What is called Ki is the equilibrium dissociation constant of an inhibitor or competing ligand from its target.

T1 sequence (P20309 whole entry): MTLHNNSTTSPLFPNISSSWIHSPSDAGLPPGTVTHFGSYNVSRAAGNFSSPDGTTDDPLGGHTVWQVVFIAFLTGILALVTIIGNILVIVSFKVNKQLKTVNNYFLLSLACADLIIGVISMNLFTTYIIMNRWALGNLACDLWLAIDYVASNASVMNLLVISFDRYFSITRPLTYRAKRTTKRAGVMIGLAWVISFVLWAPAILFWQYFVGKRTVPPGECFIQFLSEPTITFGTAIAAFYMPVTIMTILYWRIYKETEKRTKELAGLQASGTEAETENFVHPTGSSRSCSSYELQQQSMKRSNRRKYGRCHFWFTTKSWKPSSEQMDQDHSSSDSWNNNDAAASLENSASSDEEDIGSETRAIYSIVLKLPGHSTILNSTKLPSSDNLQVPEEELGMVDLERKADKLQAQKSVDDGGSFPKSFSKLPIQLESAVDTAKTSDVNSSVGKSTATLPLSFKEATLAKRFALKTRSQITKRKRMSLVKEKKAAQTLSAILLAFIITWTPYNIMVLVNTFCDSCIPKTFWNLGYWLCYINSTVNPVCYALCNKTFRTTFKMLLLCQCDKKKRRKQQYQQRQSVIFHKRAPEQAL

On to `NC(=O)C1CCN(CCCCCNC(=O)CCN2CCC(OC(=O)Nc3ccccc3-c3ccccc3)CC2)CC1` [Example 1, Biphenyl-2-ylcarbamic Acid 1-{2-[5-(4-Carbamoylpiperidin-1-yl)pentylcarbamoyl]ethyl}piperidin-4-yl Ester], for which the Ki is below 5 nM.

Values taken from US7524962B2, “Biphenyl compounds useful as muscarinic receptor antagonists” (Theravance, Inc., priority 2004, dated 2009).
